The text below walks through data of patent US8093043B2, “β-TrCP1, β-TrCP2 and RSK1 or RSK2 inhibitors and methods for sensitizing target cells to apoptosis” (New York University, priority 2008, dated 2012).

The test system of data set [1] is BimEL. The data set can be described thus: PMA-induced BimEL degradation in HEK293 cells (immunoblot). Format: cell-based, human. The source says:
siRNA. β-TrCP1/2 siRNA […] (SEQ ID NO:19) (Guardavaccaro et al., In vivo Dev Cell, 2003, 4:799-812; Margottin-Goguet cl al., Dev Cell, 2003; 4:813-26); RSK1 siRNA […] (SEQ ID NO:21) and RSK2 siRNA […] (SEQ ID NO:22) (Anjum et al., Curr Biol., 2005, 15:1762-7; Roux et al., J Biol. Chem., 2007, 282:14056-64). Control oligonucleotide was a dsRNA oligo to LacZ mRNA […] (SEQ ID NO:28). All siRNA oligonucleotides were from Dharmacon Research Inc. (Lafayette, Colo.). Cells were transfected with siRNA duplexes by Oligofectamine (Invitrogen, Carlsbad, Calif.), following manufacturer's instructions. Cells were transfected with the oligos twice (at 24 and 48 hours after plating) using oligofectamine (Invitrogen) for HEK293, HiPerFect (Qiagen) for NSCLC cell lines, or the AMAXA nucleofactor (Amaxa Inc. Gaithersburg, Md.) for CD4+ human T cell blasts at day 5, according to manufacturer's recommendations. 24 or 48 hours after the last transfection, cells were collected and analyzed.
(§1) When βTrCP1/2 is silenced (FIG. 4A) or RSK1/2 is silenced (FIG. 4B), BimEL's degradation (induced with PMA) is inhibited. […] For the experiments shown in FIG. 4A, HEK293 cells were treated with control siRNA (SEQ ID NO:28) or siRNA targeting βTrcp1/2 (SEQ ID NO:19). 48 hours after siRNA treatment cells were treated with PMA or with PMA+MG 132 (last four lanes) for indicated times. Protein extracts were immunoblotted for the indicated proteins.
For the experiments shown in FIG. 4B, HEK293 cells were treated with control siRNA (SEQ ID NO:28) or siRNA targeting RSK 1 (SEQ ID NO:21) and RSK2 (SEQ ID NO:22). 48 hours after siRNA treatment cells were treated with PMA for indicated times. Protein extracts were immunoblotted for the indicated proteins.
On the technique in general: Immunoblotting shows a protein as a band on a membrane.

Data set [2] relates to βTrCP. Briefly: βTrCP knockdown efficiency (Cdc25A accumulation, RT-PCR). The conditions noted are these: HEK293 cells; accumulation of Cdc25A, confirmed by RT-PCR. The format is cell-based, human. As for the experimental part:
FIGS. 8A-E represent quantitative analysis of βTrCP1 mRNA in HEK293, HCC827, H1650 cell lines and CD4+ human T cells treated with an siRNA oligo targeting both βTrCP1 and βTrCP2 mRNAs (SEQ ID NO:19). Representative examples showing knockdown efficiency for βTrCP siRNA by RT-PCR analysis with oligo-dT-primed, reverse-transcribed cDNA derived from total RNA that was prepared from the indicated cells transfected with either control or βTrCP siRNAs. Quantitative PCR was conducted using locus-specific primers: forward […] (SEQ ID NO:29) and reverse […] (SEQ ID NO:30) (n=3, ±SD). For HEK293 cells, knockdown efficiency was additionally analyzed by βTrCP1 immunoprecipitation and subsequent immunoblot analysis (D).
as §1

Data set [3] relates to H1650 cells. The conditions noted are these: EGFR mutant NSCLC; cited from earlier work.
The subject of data set [4] is primary thymocytes. The data set can be described thus: Cell death of primary thymocytes from Bim+/+ or Bim−/− mice (propidium iodide flow cytometry). The following applies: primary thymocytes (T cells) from Bim+/+ or Bim−/− mice, 10 mM BI-D1870, 0-5 days. Format: cell-based, mouse. As for the experimental part: Cell death was induced by addition of 10 mM BI-D1870 for 0-5 days in primary thymocytes obtained from Bim+/+ or Bim−/− mice. Cell viability was determined by flow cytometric analysis by staining the cells with propidium iodide. Cell debris was excluded from analysis based on its forward and sideward scatter characteristics. The experiment was performed in triplicate using 3 Bim+/+ and 2 Bim−/− mice for each experiment. Data shown are the means±1 SD.
Cells. HeLa (from ATCC) and U2OS (from ATCC) cells were cultured essentially as described in Donzelli et al. (EMBO J., 2002; 21:4875-84). Cells were grown at 37° C. in a 5% CO2 atmosphere in Dulbecco's modified Eagle's medium (Euroclone) supplemented with 10% bovine calf serum (Hyclone) and 2 mM L-glutamine (Euroclone), or in DMEM containing 5% fetal calf serum (FCS, from GIBCO). HEK293 (from ATCC), Bim−/− MEFs and Bax−/−; Bak−/− immortalized mouse embryo fibroblasts (MEFs) (from Dr. Huang at The Walter and Eliza Hall Institute of Medical Research, Australia; see Bouillet et al., Science, 1999, 286:1735-1738; Lindsten et al., Mol. Cell, 2000, 6:1389-1399) were maintained in Dulbecco's modified Eagle's medium (DMEM) containing 10% fetal bovine serum (FBS, from GIBCO). H1650 and HCC827 cells (both from ATCC) were maintained in RPMI-1640 medium (GIBCO) containing 10% FBS. Primary thymocytes were obtained from 6 week Bim+/+ or Bim−/− mice. […]
For orientation: A flow cytometer gives signals particle by particle.

Data set [5] deals with BimEL. Briefly: BimEL accumulation in MEFs after pharmacological RSK inhibition (immunoblot). Format: cell-based, mouse. The conditions noted are these: MEFs, 0, 1 and 5 μM BI-D1870 for 12 hours, immunoblot for Bim. As for the experimental part:
MEFs were treated with 0, 1 and 5 μM BI-D1870 for 12 hours. Cell extracts were then immunoblotted for the Bim and HSP70 (control) proteins.
Western Blotting (IP-Western). Immuno-blotting was conducted essentially as described in Donzelli et al. (2002), supra. Three pieces of the Whatman paper were wetted in Western transfer buffer (48 mM Tris Base, 39 mM Glycine, 0.0375% SDS, and 20% Methanol in ddH2O), excess of buffer was removed and pieces were placed onto the platinum anode (BIO-RAD semi-dry trans-blot SD). The nitrocellulose was wetted in the same buffer and placed onto the Whatman paper. The gel was wetted in the transfer buffer for 5 to 10 seconds and placed onto the nitrocellulose. Three pieces of Whatman paper were wetted and, removing excess of buffer, placed onto the gel. Air bubbles were removed throughout this procedure. The trans-blot cathode was placed onto the stack. The gel was transferred at a constant voltage between 15 to 25V for 30 minutes.

The target in data set [6] is T1, β-TrCP1 (Homo sapiens, UniProt Q9Y297).
T1 construct: host or cells: cell-free in vitro transcription/translation in reticulocyte lysate
T1 sequence (Q9Y297 1-605): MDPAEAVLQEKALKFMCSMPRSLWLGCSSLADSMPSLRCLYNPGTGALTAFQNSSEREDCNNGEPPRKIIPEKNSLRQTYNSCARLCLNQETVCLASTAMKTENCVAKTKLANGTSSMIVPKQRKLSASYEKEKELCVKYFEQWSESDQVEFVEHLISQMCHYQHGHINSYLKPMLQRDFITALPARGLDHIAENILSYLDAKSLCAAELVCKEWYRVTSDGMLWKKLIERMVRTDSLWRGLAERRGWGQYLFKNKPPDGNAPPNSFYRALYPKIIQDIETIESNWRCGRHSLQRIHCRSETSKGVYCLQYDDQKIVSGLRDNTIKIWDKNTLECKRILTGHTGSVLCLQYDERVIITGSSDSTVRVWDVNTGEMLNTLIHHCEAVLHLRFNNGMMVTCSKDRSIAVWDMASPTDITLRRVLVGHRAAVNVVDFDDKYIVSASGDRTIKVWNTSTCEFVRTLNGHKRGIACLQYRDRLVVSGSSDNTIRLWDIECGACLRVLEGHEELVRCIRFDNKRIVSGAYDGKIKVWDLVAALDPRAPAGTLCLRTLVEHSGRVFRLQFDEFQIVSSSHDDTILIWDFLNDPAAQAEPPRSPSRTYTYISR
The data set can be described thus: In vitro peptide binding assay with 35S-labeled in vitro translated β-TrCP1. The following applies: autoradiography; Fbxw2 and Fbxw4 as comparison. As to the method: Peptide binding assay. The peptides were coupled to agarose beads using the Aminolink Kit (Pierce, Rockford, Ill.). Coupled BimEL, β-TrCP1/2, RSK1/2, or Cdc25A peptides (10 mg) were incubated with ^35S-methionine-labeled in vitro-translated β-TrCP1/2, FBXW2 or FBXW4, using the TNT-coupled reticulocyte lysate system (Promega, Madison, Wis.) in the presence of 5 μCi of ^35S-labeled methionine (Amersham Biosciences, Piscataway, N.Y.). Agarose beads were washed with RIPA buffer and binding was assayed by SDS-PAGE followed by autoradiography.
In this experiment in vitro binding assays were performed using in, vitro translated β-TrCP1 and a purified BimEL peptide composed of 13 amino-acids containing the degron motif. The in vitro binding assays were performed between ^35S-labeled in vitro transcribed/translated β-Trcp1, Fbxw2 and Fbxw4 and beads-coupled BimEL peptide ^88[…]^100 (SEQ ID NO:24) or BimEL phosphopeptide ^88CLSRSpSpSGYFpSFD^100 (SEQ ID NO:25). Bound proteins were eluted and subjected to electrophoresis and autoradiography.

In data set [7] the test system is BimEL. Briefly: In vivo phosphorylation of BimEL on Ser93/94/98 (immunoprecipitation, phospho-specific antibody). The format is cell-based. The following applies: cells serum deprived 24 hours, PMA for 10 minutes. As to the method:
Serines 93, 94 and 98 were also shown to be phosphorylated in vivo following activation of ERK by either serum addition or PMA (FIG. 2C). In this experiment, BimEL from cells treated with PMA as well as from cells released from serum starvation were immunoprecipitated. In the experiments in FIG. 2C, cells were serum deprived (SD) for 24 hours, serum released (SR) for 10 minutes (lane 2) or treated with PMA for 10 minutes (lane 3-5). Whole cell extracts (WCE) were subjected to immunoprecipitation using HA resin (α-HA) followed by immunoblotting for β-TrCP1, and antiHA (for BimEL).

The mark [8] stands for this setting: siRNAs targeting RSK1 and RSK2 used together, PMA 48 hours after siRNA.

Entries after “also recorded” stand apart in the source; their conditions may differ. Non-standard residues stand in square brackets, D forms with d. Residues, ends and D or L forms follow the SMILES beside them. No end group written: not given here. *: point of attachment. pS = N[C@@H](COP(=O)(O)O)C(=O)O; Cbz = O=C(OCc1ccccc1)*

In the case of GUGGAAUUUGUGGAACAUC [SEQ ID NO:19], the “effect on PMA-induced BimEL degradation” value in data set [1] (siRNA targeting βTrcp1/2, PMA 48 hours after siRNA) is “counteracted the effect of PMA on BimEL degradation, stabilizing BimEL”. The βTrCP knockdown entry in data set [2] is “efficient βTrCP knockdown”.

Consider `CC(C)C[C@@H](C=O)NC(=O)[C@H](CC(C)C)NC(=O)[C@H](CC(C)C)NC(=O)OCc1ccccc1` [MG132] (Cbz-Leu-Leu-Leu-aldehyde), for which, in data set [1] (PMA+MG 132), the “effect on PMA-induced BimEL degradation” value is on record as “Inhibition of BimEL's degradation”.

For `COc1cc2ncnc(Nc3ccc(F)c(Cl)c3)c2cc1OCCCN1CCOCC1` [gefitinib], the sensitivity to gefitinib result in data set [3] was “not”.

As for `CC(C)CCN1c2nc(Nc3cc(F)c(O)c(F)c3)ncc2N(C)C(=O)C1C` (stereo not shown) [BI-D1870], the “Bim-dependent cell death / cell viability” value in data set [4] is listed as “from wild-type mice, but not from Bim^−/− mice, died; also recorded: induces Bim-dependent cell death”. In addition, in data set [5], the BimEL accumulation result is “induced BimEL accumulation; also recorded: induces an accumulation of BimEL”.

As for “^88CLSRSpSpSGYFpSFD^100 (CLSRS[pS][pS]GYF[pS]FD; listed as Homo sapiens) [SEQ ID NO:25, BimEL phosphopeptide of 13 amino acids containing the degron motif]”, the “binding of βTrCP1 to beads-coupled BimEL peptide” value in data set [6] is listed as “binds specifically”.

For the molecule `CCCCCCCCCCCCCC(=O)O[C@@H]1[C@@H](C)[C@@]2(O)[C@@H](C=C(CO)C[C@]3(O)C(=O)C(C)=C[C@@H]23)[C@@H]2C(C)(C)[C@]12OC(C)=O` [PMA], the “phosphorylation of BimEL on Ser93/94/98” value in data set [7] is reported as “rapidly induced”.

As to “CCCAACAUCAUCACUCUGAAA (listed as RNA, chemistry not given here; listed as Homo sapiens) [SEQ ID NO:21, siRNA for human RSK1]”, in data set [1] (setting [8]), the “effect on PMA-induced BimEL degradation” value is given as “counteracted the effect of PMA on BimEL degradation, stabilizing BimEL”.

With “AGCGCUGAGAAUGGACAGCAA (listed as RNA, chemistry not given here; listed as Homo sapiens) [SEQ ID NO:22, siRNA for human RSK2]”, in data set [1] (setting [8]), the “effect on PMA-induced BimEL degradation” value is “counteracted the effect of PMA on BimEL degradation, stabilizing BimEL”.
